Assay results as given in patent US7022733B2, “Substituted 2-phenyl benzofurans as estrogenic agents” (Wyeth, priority 2001, dated 2006).
Where a name gives a salt, the structure may show the parent alone.

SMILES | melting point
CCCOC(=O)c1cc(O)cc2cc(-c3ccc(O)cc3)oc12 [Example 37, 5-Hydroxy-2-(4-hydroxy-phenyl)-benzofuran-7-carboxylic acid propyl ester] | 220 to 222 °C
Oc1ccc(-c2cc3cc(F)cc(F)c3o2)cc1 [Example 94, 4-(5,7-Difluoro-benzofuran-2-yl)-phenol] | 152 to 154 °C
CSCc1cc(O)cc2cc(-c3ccc(O)cc3)oc12 [Example 10, 2-(4-Hydroxy-phenyl)-7-methylsulfanylmethyl-benzofuran-5-ol] | 188 to 190 °C
Oc1ccc2oc(-c3cc(OCc4ccccc4)c(O)cc3-c3ccccc3)cc2c1 [Example 104, 2-(4-Benzyloxy-5-hydroxy-biphenyl-2-yl)-benzofuran-5-ol] | 186 to 187 °C
COC(=O)c1cc(O)cc2cc(-c3ccc(O)cc3)oc12 [Example 38, 5-Hydroxy-2-(4-hydroxy-phenyl)-benzofuran-7-carboxylic acid methyl ester] | 236 to 238 °C
Oc1ccc2oc(-c3ccc(O)c(F)c3)cc2c1 [Example 126, 2-(3-Fluoro-4-hydroxy-phenyl)-benzofuran-5-ol] | 218 to 222 °C
COC(=O)CCc1cc(O)cc2cc(-c3ccc(O)cc3)oc12 [Example 60, 3-[5-Hydroxy-2-(4-hydroxy-phenyl)-benzofuran-7-yl]-propionic acid methyl ester] | 167 to 170 °C
CC(C)(C)c1ccc2oc(-c3ccc(O)cc3)cc2c1 [Example 92, 4-(5-tert-Butyl-benzofuran-2-yl)-phenol] | 172 to 174 °C
Oc1ccc(-c2cc3c(Cl)c(O)ccc3o2)cc1 [Example 131, 4-Chloro-2-(4-hydroxy-phenyl)-benzofuran-5-ol] | 210 to 214 °C
COC(=O)C=Cc1cc(O)cc2cc(-c3ccc(O)cc3)oc12 [Example 59, 3-[5-Hydroxy-2-(4-hydroxy-phenyl)benzofuran-7-yl]-acrylic acid methyl ester] | 231 to 234 °C
COc1cc(O)c(C#N)c2cc(-c3ccc(O)c(F)c3)oc12 [Example 73a, 2-(3-Fluoro-4-hydroxy-phenyl)-5-hydroxy 7-methoxy-benzofuran-4-carbonitrile] | 265 to 267 °C
CCOC(=O)c1cc(O)cc2cc(-c3ccc(O)cc3)oc12 [Example 39, 5-Hydroxy-2-(4-hydroxy-phenyl)-benzofuran-7-carboxylic acid ethyl ester] | 221 to 223 °C
OCc1cc(O)cc2cc(-c3ccc(O)cc3)oc12 [Example 25, 7-Hydroxymethyl-2-(4-hydroxy-phenyl)-benzofuran-5-ol] | 258 to 260 °C
CCOCc1cc(O)cc2cc(-c3ccc(O)cc3)oc12 [Example 7, 7-Ethoxymethyl-2-(4-hydroxy-phenyl)-benzofuran-5-ol] | 166 to 168 °C
CC(C)OCc1cc(O)cc2cc(-c3ccc(O)cc3)oc12 [Example 8, 2-(4-Hydroxy-phenyl)-7-isopropoxymethyl benzofuran-5-ol] | 195 to 197 °C
O=C(O)c1ccc2oc(-c3ccc(O)cc3)cc2c1 [Example 143, 2-(4-Hydroxy-phenyl)-benzofuran-5-carboxylic acid] | > 300 °C
CC(=NO)c1c(-c2ccc(O)cc2)oc2ccc(O)cc12 [Example 111, 1-[5-Hydroxy-2-(4-hydroxy-phenyl)-benzofuran-3-yl]-ethanone oxime] | 217 °C
CC(O)c1c(-c2ccc(O)cc2)oc2ccc(O)cc12 (stereo not drawn) [Example 113, 3-(1-Hydroxy-ethyl)-2-(4-hydroxy-phenyl)-benzofuran-5-ol] | 177 to 182 °C
O=C(O)c1cc(O)cc2cc(-c3ccc(O)cc3)oc12 [Example 24, 5-Hydroxy-2-(4-hydroxy-phenyl)-benzofuran-7-carboxylic acid] | 260 to 262 °C
Oc1ccc(-c2cc3c(Br)c(O)ccc3o2)cc1 [Example 130, 4-Bromo-2-(4-hydroxy-phenyl)-benzofuran-5-ol] | 196 to 198 °C
CC(=O)c1c(-c2ccc(O)cc2)oc2ccc(O)cc12 [Example 110, 1-[5-Hydroxy-2-(4-hydroxy-phenyl)-benzofuran-3-yl]-ethanone] | 243 to 251 °C
CCSCc1cc(O)cc2cc(-c3ccc(O)cc3)oc12 [Example 11, 7-Ethylsulfanylmethyl-2-(4-hydroxy-phenyl)-benzofuran-5-ol] | 181 to 183 °C
Nc1cc(O)cc2cc(-c3ccc(O)cc3)oc12 [Example 100, 7-Amino-2-(4-hydroxy-phenyl)-benzofuran-5-ol] | 251 to 254 °C
COc1c(O)ccc2oc(-c3ccc(O)cc3)cc12 [Example 132, 2-(4-Hydroxy-phenyl)-4-methoxy-benzofuran-5-ol] | 165 to 171.68 °C
Oc1ccc(-c2cc3c(Br)c(O)cc(Br)c3o2)cc1 [Example 63, 4,7-Dibromo-2-(4-hydroxy-phenyl)-benzofuran-5-ol] | 215 to 217 °C
CC(C)OC(=O)c1cc(O)cc2cc(-c3ccc(O)cc3)oc12 [Example 36, 5-Hydroxy-2(4hydroxy-phenyl)-benzofuran-7-carboxylic acid Isopropyl ester] | > 250 °C

SMILES | melting point
N#Cc1c(O)ccc2oc(-c3ccc(O)cc3)cc12 [Example 135, 5-Hydroxy-2-(4-hydroxy-phenyl)-benzofuran-4-carbonitrile] | > 230 °C
CCCc1cc(O)cc2cc(-c3ccc(O)cc3)oc12 (as salt: HCl) [Example 35, 2-(4-Hydroxy-phenyl)-7-propyl-benzofuran-5-ol] | 178 to 180 °C
Oc1ccc(-c2cc3cc(Br)cc(Br)c3o2)cc1 [Example 95, 4-(5,7-Dibromo-benzofuran-2-yl)-phenol] | 203 to 205 °C
OCc1ccc2oc(-c3ccc(O)cc3)cc2c1 [Example 144, 4-(5-Hydroxymethyl-benzofuran-2-yl)-phenol] | 248 to 250 °C
NC(=O)C=Cc1cc(O)cc2cc(-c3ccc(O)cc3)oc12 [Example 61, 3-[5-Hydroxy-2-(4-hydroxyphenyl)-benzofuran-7-yl]-acrylamide] | 275 °C (dec.)
Oc1ccc(-c2cc3cc(O)cc(-c4nnco4)c3o2)cc1 [Example 138, 2-(4-Hydroxy-phenyl)7-[1,3,4]oxadiazol-2-yl-benzofuran-5-ol] | 260 to 266 °C
O=C(c1cc(O)cc2cc(-c3ccc(O)cc3)oc12)C(F)(F)F [Example 68, 2,2,2-Trifluoro-1-[5-hydroxy-2-(4-hydroxy-phenyl)-benzofuran-7-yl]-ethanone] | 215 to 216 °C
COc1ccc(-c2cc3cc(OC)cc(CO)c3o2)cc1 [Example 3, [5-Methoxy-2-(4-methoxy-phenyl)-benzofuran-7-yl]-methanol] | 128 to 130 °C
Oc1ccc(-c2cc3cc(O)cc(Cn4ccnc4)c3o2)cc1 [Example 16, 2-(4-Hydroxy-phenyl)-7-imidazol-1-ylmethyl-benzofuran-5-ol] | 269 to 271 °C
C=Cc1cc(O)cc2cc(-c3ccc(O)cc3)oc12 [Example 67, 2-(4-Hydroxy-phenyl)-7-vinyl-benzofuran-5-ol] | 182 to 184 °C
CC(C)(C#N)c1cc(O)cc2cc(-c3ccc(O)cc3)oc12 [Example 22, 2-[5-Hydroxy-2-(4-hydroxy-phenyl)-benzofuran-7-yl]-2-methyl-propionitrile] | 284 °C
N#CSCc1cc(O)cc2cc(-c3ccc(O)cc3)oc12 [Example 15, 2-(4-Hydroxy-phenyl)-7-thiocyanatomethyl-benzofuran-5-ol] | 190 to 192 °C
CON(C)C(=O)c1cc(O)cc2cc(-c3ccc(O)cc3)oc12 [Example 119, 5-Hydroxy-2-(4-hydroxy-phenyl)-benzofuran-7-carboxylic acid methoxy-methyl-amide] | 125 to 127 °C
CCc1cc(O)cc2cc(-c3ccc(O)cc3)oc12 [Example 30, 7-Ethyl-2-(4-hydroxy-phenyl)-benzofuran-5-ol] | 218 to 220 °C
Oc1ccc(-c2cc3cc(F)ccc3o2)cc1 [Example 91, 4-(5-Fluoro-benzofuran-2-yl)-phenol] | 202 to 204 °C
CC(C)c1cc(O)cc2cc(-c3ccc(O)cc3)oc12 [Example 118, 2-(4-Hydroxy-phenyl)-7-isopropyl-benzofuran-5-ol] | 192 to 194 °C
Oc1ccc(-c2cc(O)ccc2-c2cc3cc(O)ccc3o2)cc1 [Example 105, 6-(5-Hydroxy-benzofuran-2-yl)-biphenyl-3,4′-diol] | 238 to 239 °C
Oc1ccc(-c2cc3cc(O)ccc3o2)c(Br)c1 [Example 102, 2-(2-Bromo-4-hydroxy-phenyl)-benzofuran-5-ol] | 195 °C
Oc1ccc(-c2cc3cc(O)cc(CSc4ccccc4)c3o2)cc1 [Example 12, 2-(4-Hydroxy-phenyl)-7-phenylsulfanylmethyl-benzofuran-5-ol] | 175 to 177 °C
COc1cc(O)c(C=NO)c2cc(-c3ccc(O)cc3)oc12 [Example 72, 5-Hydroxy-2-(4-hydroxy-phenyl)-7-methoxy-benzofuran-4-carbaldehyde oxime] | 205 °C (dec.)
COCc1cc(O)cc2cc(-c3ccc(O)cc3)oc12 [Example 6, 2-(4-Hydroxy-phenyl)-7-methoxymethyl-benzofuran-5-ol] | 186 to 188 °C
Oc1ccc(-c2cc3cc(O)cc(CC(F)(F)F)c3o2)cc1 [Example 141, 2-(4-Hydroxy-phenyl)-7-(2,2,2-trifluoro-ethyl)-benzofuran-5-ol] | 210 to 213 °C
Cc1cc(O)ccc1-c1cc2cc(O)ccc2o1 [Example 80, 2-(4-Hydroxy-2-methyl-phenyl)-benzofuran-5-ol] | 167 to 169 °C
Oc1ccc(-c2cc3cc(O)ccc3o2)c(-c2ccc(OCCN3CCCC3)cc2)c1 (as salt: hydrochloride) [Example 108, 2-[5-Hydroxy-4′-(2-pyrrolidin-1-yl-ethoxy)-biphenyl-2-yl]-benzofuran-5-ol] | 266 to 269 °C
CC(C#N)c1cc(O)cc2cc(-c3ccc(O)cc3)oc12 (stereo not drawn) [Example 21, 2-[5-Hydroxy-2-(4-hydroxy-phenyl)-benzofuran-7-yl]-propionitrile] | 183 to 185 °C
